Reference: PubChem BioAssay AID192 (DTP/NCI, 2004)
Inconclusive results and toxic doses are left out. Rule for the calls: active = survival T/C of 150% or more; inactive = T/C below 125% in these data.

System: BDF1 mice, B16 melanoma ip, median survival T/C
Test: NCI In Vivo Anticancer Drug Screen. Data for tumor model B16 Melanoma (intraperitoneal) in B6D2F1 (BDF1) mice
Settings: endpoint: median survival time, higher = longer survival
Summary of the method: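 Mice with transplantable tumors; drug vs vehicle groups; endpoint survival or tumor size; value = T/C.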

[1] = dose: 50.0 mg/kg/injection, schedule: Q01DX009 (ip), vehicle: saline with Tween-80
[2] = dose: 25.0 mg/kg/injection, schedule: Q01DX009 (ip), vehicle: Klucel (hydroxypropylcellulose) (HPC)
[3] = dose: 50.0 mg/kg/injection, schedule: Q01DX009 (ip), vehicle: Klucel (hydroxypropylcellulose) (HPC)
[4] = dose: 100.0 mg/kg/injection, schedule: Q01DX009 (ip), vehicle: Klucel (hydroxypropylcellulose) (HPC)
[5] = dose: 200.0 mg/kg/injection, schedule: Q01DX009 (ip), vehicle: Klucel (hydroxypropylcellulose) (HPC)
[6] = dose: 12.5 mg/kg/injection, schedule: Q01DX009 (ip), vehicle: Klucel (hydroxypropylcellulose) (HPC)

Measured: T/C

Cn1c(N)c(N=Nc2ccccc2Cl)c(=O)n(C)c1=O
inactive: dose: 6.25 mg/kg/injection, schedule: Q01DX009 (ip), vehicle: saline 110 % of control | dose: 12.5 mg/kg/injection, schedule: Q01DX009 (ip), vehicle: saline 105 % of control | dose: 25.0 mg/kg/injection, schedule: Q01DX009 (ip), vehicle: saline 104 % of control | [1] 86 % of control | dose: 50.0 mg/kg/injection, schedule: Q01DX009 (ip), vehicle: saline 110 % of control

O=C(Nc1ccc(F)cc1)Nc1nccs1
inactive: [2] 99 % of control | [3] 104 % of control | [4] 101 % of control | [5] 104 % of control

Cc1ccc2c(C)c3ccc4ccccc4c3c[n+]2c1
inactive: dose: 10.0 mg/kg/injection, schedule: Q01DX009 (ip), vehicle: saline with Tween-80 104 % of control | dose: 20.0 mg/kg/injection, schedule: Q01DX009 (ip), vehicle: saline with Tween-80 106 % of control | dose: 40.0 mg/kg/injection, schedule: Q01DX009 (ip), vehicle: saline with Tween-80 100 % of control

O=C(Nc1ccc(Cl)cc1)c1cccnc1
inactive: [1] 101 % of control | dose: 100.0 mg/kg/injection, schedule: Q01DX009 (ip), vehicle: saline with Tween-80 106 % of control | dose: 200.0 mg/kg/injection, schedule: Q01DX009 (ip), vehicle: saline with Tween-80 94 % of control

CN(C)S(=O)(=O)c1ccc2c(c1)N(CCCN1CCN(S(C)(=O)=O)CC1)c1ccccc1S2
inactive: dose: 0.78 mg/kg/injection, schedule: Q01DX009 (ip), vehicle: Klucel (hydroxypropylcellulose) (HPC) 87 % of control | dose: 1.56 mg/kg/injection, schedule: Q01DX009 (ip), vehicle: Klucel (hydroxypropylcellulose) (HPC) 90 % of control | dose: 3.12 mg/kg/injection, schedule: Q01DX009 (ip), vehicle: Klucel (hydroxypropylcellulose) (HPC) 90 % of control | [6] 95 % of control

CC(=O)OC12CC[N+]3(C)CCCCC3C1=Nc1ccccc12 (centres undefined)
inactive: [6] 109 % of control | [2] 104 % of control

COc1cc(OC)c(/C=C/c2cc[n+](C)c3ccccc23)c(OC)c1
inactive: dose: 0.75 mg/kg/injection, schedule: Q01DX009 (ip), vehicle: saline 105 % of control | dose: 1.5 mg/kg/injection, schedule: Q01DX009 (ip), vehicle: saline 95 % of control | dose: 3.0 mg/kg/injection, schedule: Q01DX009 (ip), vehicle: saline 97 % of control

COc1cc(O)c2c(c1)C(=O)c1cc3c(c(O)c1C2=O)CC(OC)C(C)(O)C3=O (centres undefined)
inactive: dose: 25.0 mg/kg/injection, schedule: Q01DX009 (ip), vehicle: other 104 % of control | dose: 50.0 mg/kg/injection, schedule: Q01DX009 (ip), vehicle: other 91 % of control | dose: 100.0 mg/kg/injection, schedule: Q01DX009 (ip), vehicle: other 91 % of control

C#CC1(OCC2CN(c3ccccc3)C(=O)O2)CCCCC1 (centres undefined)
inactive: [2] 93 % of control | [3] 95 % of control | [4] 95 % of control | dose: 100.0 mg/kg/injection, schedule: Q04DX003 (ip), vehicle: saline with Tween-80 97 % of control | [5] 102 % of control | dose: 200.0 mg/kg/injection, schedule: Q04DX003 (ip), vehicle: saline with Tween-80 102 % of control | dose: 400.0 mg/kg/injection, schedule: Q01DX009 (ip), vehicle: Klucel (hydroxypropylcellulose) (HPC) 91 % of control | dose: 400.0 mg/kg/injection, schedule: Q04DX003 (ip), vehicle: saline with Tween-80 100 % of control

N=C(N)NC(=N)Nc1ccc(NC(=O)Nc2ccc(Nc3c4ccccc4nc4cc([N+](=O)[O-])ccc34)cc2)cc1
inactive: dose: 0.8 mg/kg/injection, schedule: Q01DX009 (ip), vehicle: water 98 % of control | dose: 1.6 mg/kg/injection, schedule: Q01DX009 (ip), vehicle: water 100 % of control | dose: 3.13 mg/kg/injection, schedule: Q01DX009 (ip), vehicle: water 102 % of control | dose: 6.25 mg/kg/injection, schedule: Q01DX009 (ip), vehicle: water 104 % of control | dose: 12.5 mg/kg/injection, schedule: Q01DX009 (ip), vehicle: water 94 % of control

Cc1cc(C)c(C(Cl)(Cl)Cl)c(C)c1Cl
inactive: dose: 1.56 mg/kg/injection, schedule: Q01DX009 (ip), vehicle: saline with Tween-80 93 % of control | dose: 3.13 mg/kg/injection, schedule: Q01DX009 (ip), vehicle: saline with Tween-80 90 % of control | dose: 6.25 mg/kg/injection, schedule: Q01DX009 (ip), vehicle: saline with Tween-80 99 % of control | dose: 12.5 mg/kg/injection, schedule: Q01DX009 (ip), vehicle: saline with Tween-80 103 % of control
